Values quoted from earlier work, collected in article PMC2920223 (Analytical chemistry, 2010).

Key:
[1] = test system: puromycin-sensitive aminopeptidases (PSA, NAP and NAP2); conditions: at 20 μM puromycin
[2] = test system: aminopeptidases (aminopeptidase N (APN), puromycin-sensitive aminopeptidase (PSA), NAP and NAP2); conditions: rat
[3] = exogenous YGGFM, rat striatal slices

## COc1ccc(C[C@H](N)C(=O)N[C@H]2[C@@H](O)[C@H](n3cnc4c(N(C)C)ncnc43)O[C@@H]2CO)cc1 [puromycin]
[1]
  inhibition of puromycin-sensitive aminopeptidases: effectively inhibited

## YGGFL
[2]
  cleaved bond: tyrosine-Gly

## YGGFM
[3]
  hydrolysis at Tyr-Gly as share of the total hydrolysis: about 80%
